For one assay, the system named is SNB-75. Put plainly: Cytotoxicity against human SNB75 cells at 10 uM. The format is functional. The conditions noted are these: read-out: GI.
Another assay deals with MOLT-4. Nature of the assay: Cytotoxicity against human MOLT4 cells at 10 uM. The format is functional. The following applies: read-out: GI.
The test system of another assay is DU-145. Put plainly: Cytotoxicity against human DU145 cells at 10 uM. The format is functional.
For the next assay, the system named is SF-268. Nature of the assay: Cytotoxicity against human SF268 cells at 10 uM. The format is functional. The following applies: read-out: GI.
The subject of a further assay is LOX IMVI. Put plainly: Cytotoxicity against human LOXIMVI cells at 10 uM. The assay is classed as functional. The conditions noted are these: read-out: GI.
Another assay deals with HOP-92. Put plainly: Cytotoxicity against human HOP92 cells at 10 uM. The format is functional. The conditions noted are these: read-out: GI.
The next assay deals with SW-620. Nature of the assay: Cytotoxicity against human SW620 cells at 10 uM. The assay is classed as functional.
The subject of another assay is RPMI-8226. Put plainly: Cytotoxicity against human RPMI8226 cells at 10 uM. The assay is classed as functional. The following applies: read-out: GI.
The subject of the next assay is HT-29. Nature of the assay: Cytotoxicity against human HT-29 cells at 10 uM. The assay is classed as functional.
For a further assay, the system named is MCF7. Nature of the assay: Cytotoxicity against human MCF7 cells at 10 uM. The assay is classed as functional.
Another assay concerns A498. Put plainly: Cytotoxicity against human A498 cells at 10 uM. The format is functional.
A further assay concerns OVCAR-3. Nature of the assay: Cytotoxicity against human OVCAR3 cells at 10 uM. The assay is classed as functional.
The next assay concerns A549. Put plainly: Cytotoxicity against human A549 cells at 10 uM. The assay is classed as functional.
A further assay relates to PC-3. Put plainly: Cytotoxicity against human PC3 cells at 10 uM. The assay is classed as functional.
The subject of another assay is T47D. Nature of the assay: Cytotoxicity against human T47D cells at 10 uM. The format is functional. The following applies: read-out: GI.
Another assay deals with NCI-H460. Put plainly: Cytotoxicity against human NCI-H460 cells at 10 uM. The format is functional.
For the next assay, the system named is KM12. Put plainly: Cytotoxicity against human KM12 cells at 10 uM. The assay is classed as functional.
A further assay has as its system SR. Nature of the assay: Cytotoxicity against human SR cells at 10 uM. The format is functional. The following applies: read-out: GI.
Assay [1] is described as follows: Cytotoxicity against human Hs 578T cells at 10 uM. The following applies: read-out: GI. The format is functional.
The subject of the next assay is UACC-62. Put plainly: Cytotoxicity against human UACC62 cells at 10 uM. The assay is classed as functional. The following applies: read-out: GI.
Assay [2] can be described thus: (§1) Cytotoxicity against human NCI-ADR-RES cells at 10 uM. The assay is classed as functional. The following applies: read-out: GI.
The next assay deals with SK-MEL-2. Nature of the assay: Cytotoxicity against human SK-MEL-2 cells at 10 uM. The format is functional.
A further assay has as its system MDA-MB-468. Put plainly: Cytotoxicity against human MDA-MB-468 cells at 10 uM. The following applies: read-out: GI. The format is functional.
For the next assay, the target named is Carbonic anhydrase 9 (Homo sapiens, UniProt Q16790).
The test system of another assay is NCI/ADR-RES. The assay is described as §1. The assay is classed as functional.

Activity calls are given as the source filed them. The rule behind the calls is not given here.

Regarding `Cc1cc(S(=O)(=O)NC(=N)Nc2ccc(S(N)(=O)=O)cc2)c(SCc2cc3c(cc2Cl)OCO3)cc1Cl`, the inhibition of growth at 10 µM amounted to 22% in the assay with SNB-75; 20% in the assay on MOLT-4; 5% in the assay on SF-268; 8% in the assay with LOX IMVI; 29% in the assay with HOP-92; 10% in the assay on RPMI-8226. Moreover, the inhibition of growth at 10 µM in the assay with MCF7 (read-out: GI) stood at 4%; with OVCAR-3 (read-out: GI), 12%; in the assay with A549 (read-out: GI), 4%; with PC-3 (read-out: GI), 25%; with T47D, 23%; in the assay on KM12 (read-out: GI), 8%. Moreover, the inhibition of growth at 10 µM with SR is 25%; in [1], 2%; in the assay on UACC-62, 17%; in assay [2], 1%; in the assay with SK-MEL-2 (read-out: GI), 9%; in the assay on MDA-MB-468, 41%. Also, the “growth inhibition (GI)” value with DU-145, in the assay on SW-620, in the assay with HT-29, in the assay on A498 and in the assay with NCI-H460 was “inactive” in each case.
For the molecule `Cc1cc(S(=O)(=O)NC(=N)Nc2nnc(S(N)(=O)=O)s2)c(SCc2cccc3ccccc23)cc1Cl`, the inhibition of growth at 10 µM with SNB-75 came to 11%; with SF-268, 4%; with LOX IMVI, 2%; in the assay with HOP-92, 3%; in the assay with SW-620 (read-out: GI), 8%; in the assay with A498 (read-out: GI) it was 48%. Moreover, the inhibition of growth at 10 µM in the assay on T47D was 17%; in the assay with NCI-H460 (read-out: GI), 3%; in assay [1], 15%; in the assay on UACC-62, 2%. The same molecule had a Ki at Carbonic anhydrase 9 of 9.4 nM. Besides, the “growth inhibition (GI)” value in the assay with DU-145, in the assay on HT-29, in the assay on MCF7, in the assay on OVCAR-3, in the assay on A549 and with PC-3 was “inactive” throughout. In addition, the “growth inhibition (GI)” value in the assay on KM12, in the assay with NCI/ADR-RES and in the assay with SK-MEL-2 was “inactive” in each case.

Usually Ki stands for the equilibrium dissociation constant of an inhibitor or competing ligand from its target. Low values mean a stronger hold on the target, high ones a looser hold on the target.

Source of the values: ChEMBL document CHEMBL3102853, “Carbonic anhydrase inhibitors. Synthesis, and molecular structure of novel series N-substituted N'-(2-arylmethylthio-4-chloro-5-methylbenzenesulfonyl)guanidines and their inhibition of human cytosolic isozymes I and II and the transmembrane tumor-associated isozymes IX and XII” (Eur J Med Chem, 2014).
